US20050081267A1, “Novel genes for conditional cell ablation” (Bayer Bioscience N.V., priority 2001, published 2005)

Columns and labels:
[1] = system: flower buds of the transgenic lines (Tobacco, Nicotiana tabacum) expressing ArgJ deacetylase under TA29 promoter; test: Flower bud treatment to induce male-sterile flowers in TA29-ArgJ transgenic tobacco; format: in vivo; settings: 10 μl of 5 mg/ml solution (0.1% Genapol)
Excerpt: The ArgJ coding sequence was recloned into the binary vector pROK1 under control of the TA29 promoter of tobacco. The resulting plasmid pTA29ARG comprising the TA29 promoter, ArgJ coding sequence and 35S terminator was transformed in Agrobacterium tumefaciens (strain ATHV) using standard methods. Tobacco (Nicotiana tabacurn) leaf disks were transformed with the recombinant Agrobacteria according to the method of Horsch et al. (1985, above) and selected on kanamycin medium.
To investigate tapetum-specific expression of the ArgJ deacetylase, flower buds of the transgenic lines were treated with N-acetyl-PPT to induce male-sterile flowers.
In each case only one side of the inflorescence ([…] of the developing flower bud) was treated with N-acetyl PPT, in order to eliminate possible contamination with natural male-sterility phenomena. Treatment was carried out on flower buds of 2 to 4 mm large. Transgenic and control plants were treated with 10 μl of 5 mg/ml N-acetyl PPT solution (0.1% Genapol as wetting agent). After the blooming of the buds (about 9-11 days after conclusion of the treatment) the plants were investigated for the occurrence of male-sterile flowers.

[2] = system: leaves of the transgenic plants (Tobacco, Nicotiana tabacum) expressing ArgJ coding sequence under 35S promoter; test: Drop experiment on leaves of 35S-ArgJ transgenic tobacco plants; format: in vivo; settings: 5 μl drops; dose of 4 mg/ml or 1 mg/ml; apparent 4 to 5 days after treatment; seven independent p35SARG transformants
Excerpt: The ArgJ coding sequence was recloned into the binary vector pROK1 under control of the Cauliflower Mosaic Virus 35S promoter sequence. The resulting plasmid p35SARG comprising the 35S promoter, ArgJ coding sequence and 35S terminator was transformed in Agrobacterium tumefaciens (strain ATHV) using standard methods. Tobacco (Nicotiana tabacum) leaf disks were transformed with the recombinant Agrobacteria according to the method of Horsch et al. (1985, Science 227:1229-1231) and selected on kanamycin medium. Seven independent transformants were regenerated. In a drop experiment, the leaves of the transgenic plants (and a number of control plants) were treated with 5 μl each of the following concentrations of N-acetyl- D, L-PPT: 4 mg/ml (=15 mM), 1 mg/ml (=3.75 mM), 0.4 mg/ml (=1.5 mM), 0.1 mg/ml (=0.38 mM). The treatment sites were examined for lightening or necrosis formation.

## CC(=O)NC(CCP(C)(=O)O)C(=O)O [N-acetyl- D, L-PPT, N-acetyl-phosphinothricin]
[1]; control and wild-type plants
  occurrence of male-sterile flowers, control or wild-type tobacco flowers: no reaction was seen
[1]; flower buds 2 to 4 mm, examined about 9-11 days after treatment, pTA29ARG transgenic plants
  occurrence of male-sterile flowers from drop-treated flowerbuds, transgenic plants: In three out of seven transgenic plants, male-sterile flowers developed
[2]
  lightening or necrosis formation at treatment sites (leaf damage): Four plants showed clearly visible leaf damage
